Measured values reported in publication PMC11274883, “Anticancer Effect of Pt^[sequence], Pt^II5MESS, Pt^II56MESS and Their Platinum(IV)-Dihydroxy Derivatives against Triple-Negative Breast Cancer and Cisplatin-Resistant Colorectal Cancer” (Cancers, 2024).

Assays:
Assay type in all cases: cell-based
MDA−MB−231 3D networks = experiment: 3D bioprinted culture cytotoxicity (WST-1); conditions: 72 h, mean ± SEM
Text: To evaluate the cytotoxic effect of platinum(II) and (IV) complexes in 3D cell culture, MDA−MB−231 or HT29 cells were used to bioprint networks or spheroids with the non-contact drop-on-demand 3D RASTRUM bioprinter (Inventia Life Science, Alexandria, NSW, Australia). The 3D cultures use two constituents: bioink and activator. Cell pellets (2 × 10^6 cells) were resuspended in an activator reagent which forms an instant gel after its addition to the bioink by the bioprinter. The 3D large plug cell model with polyethylene glycol bioinks formulated to mimic the properties of in vivo tissue were chosen as follows. Matrix Px02.31 (activator F177 and bioink F242 with RGD: Fibronectin) was used for MDA−MB−231 3D embedded networks, Px02.00 (activator F177 and bioink F119 without RGD additives, Table S1) was used for MDA−MB−231 spheroids and matrix #Px02.09 (activator F177 and bioink F236 with adhesion peptides including, RGD: Fibronectin, and GFOGER: collagen type I to recapitulate rich in vivo tissue extracellular environments) was used for HT29 spheroids (Inventia Life Science) (Table S1). Each cell line was printed at 10,000 cells/well and loaded with the bioink fluids into the selected printer cartridge. After the automated priming of all fluids into the printer nozzles, each cell line was individually printed on tissue culture plates (Nunc^TM MicroWell^TM 96-Well, Nunclon Delta-Treated, Flat-Bottom Microplate, ThermoFisher #167008), with RASTRUM creating the 3D Large Plug across the 96-well plate. Following completion of the print run, 200 μL DMEM culture medium was added to each well using multichannel pipettes. The plate was then incubated for 7 days (humidified incubator with 5% CO2 at 37 °C) for compact and homogenous spheroid formation before the cytotoxicity assay. When the spheroids developed, post-7-day incubation, media was removed and replaced with 100 µL DMEM. […] Cytotoxicity was then assessed using the WST-1 assay as previously described in Section 2.3.

HT29 cells = experiment: Cellular uptake of Pt by ICP-MS; conditions: for Intracellular Concentration: HT29, 3 µM; for Intracellular/extracellular ratio: HT29, extracellular 3 µM
Procedure: (§1) A final concentration of 10^6 cells/well of MDA−MB−231 and HT29 cells were seeded in 6-well plates and incubated overnight to adhere. The cells were then treated with a final concentration of 3 µM of either Pt^II or Pt^IV complexes. After 0, 0.5, 1, 3, 6, 12, 24 or 30 h, the medium was removed, and the cells were washed three times with cold PBS and allowed to dry. Then, 400 µL of 69% HNO3 (Baseline grade nitric acid with PPB level reported impurities, Seastar Chemicals, Sidney, BC, Canada) was added to each well for 90 min to ensure complete digestion. […] Iridium 193 (^193Ir) was mixed online and introduced into the ICP-MS to check uptake efficiency and matrix interference. All ICP-MS parameters are described in Table S2 and elaborated in Method S3. The results represent an average of three different experiments run in triplicate (±SEM) and expressed as nmol/10^6 cells or µM/cell. Quantification of the cellular uptake of Pt was based on external standards (Certified Standard from Sigma-Aldrich, VIC, Australia) containing Internal standard Ir.
(§2) Method S3. Cellular Uptake of Platinum(II) and (IV) complexes
(§3) A final concentration of 10^6 cells/well of MDA−MB−231 and HT29 cells were seeded in 6-well plates and incubated overnight to adhere. The cells were then treated with a final concentration of 3 µM of either PtII or PtIV complexes. After 0, 0.5, 1, 3, 6, 12, 24 or 30 h, the medium was removed, and the cells were washed three times with cold PBS and allowed to dry. Then, 400 µL of 69% HNO3 (Baseline grade nitric acid with Instrument Quality Grade Nitric acid with ppb level reported impurities, Seastar Chemicals, Sidney, Canada) was added to each well for 90 mins to ensure complete digestion. The digests were then moved to trace -metal free 15 mL centrifuge tubes […]
(§4) concentration of 3.5-4%. Iridium 193 (193Ir), selected as internal standard, has similar first ionisation potential and mass to Platinum 195 (195Pt). A concentration of 50 ppb 193Ir in 2% HNO3 solution was chosen for the Perkin Elmer NexION® Inductively Coupled Plasma Mass Spectrometer (ICP-MS) as it produced a steady state signal intensity of 600-800K counts per second. Mixing and injection of sample and internal standard solution was carried out using an ESI 7 port Valve system (Elemental Scientific, USA). A high-quality Solvent Flex 2 stop pump with 0.38 mm ID tubing was used in conjunction with the ICP-MS’s Peristaltic pump set at 20 […]
(§5) standard both, at 0.25 mL/min) being 0.5 mL/min. The ICP-MS was tuned to high sensitivity settings to facilitate detection of low Pt concentrations in samples. This was done by adjusting the nebuliser gas flow between […] to achieve maximum Indium 115 intensity whilst maintaining an acceptable average oxide and doubly charged ratio of 1.64-2.24% and 1.17-1.69% respectively. The analysis method was set to peak hopping mode with a dwell time of […] and 45 sweeps through the mass spectrum per sample read. […]
(§6) peak integration time of 4500 milliseconds and enabled the collection of numerous data points for peak integration thereby increasing accuracy. The ICP-MS was tuned daily, and its performance optimised to a set of suppliers recommended settings. Analysis was only carried out when optimal oxide and doubly charged ratios with high ionic sensitivity was achieved. All ICP-MS parameters are described in Table S2. The results represent an average of three different experiments run in triplicates (± SEM) and expressed as nmol/106 cells or µM/cell. Quantification of the cellular uptake of Pt was based on external standards (Certified Standard from Sigma-Aldrich NSW, Australia) containing Internal standard Ir. […]

MDA−MB−231 cells = experiment: Cellular uptake of Pt by ICP-MS; conditions: for Intracellular Concentration: MDA−MB−231, 3 µM; for Intracellular/extracellular ratio: MDA−MB−231, extracellular 3 µM
Procedure: as §1, §2, §3, §4, §5, §6

| Compound | IC50 (MDA−MB−231 3D networks) [nM] | Intracellular Concentration (HT29 cells; 0 h) [nmol/10^6 cells] | Intracellular Concentration (HT29 cells; 0.5 h) [nmol/10^6 cells] | Intracellular Concentration (HT29 cells; 1 h) [nmol/10^6 cells] | Intracellular Concentration (HT29 cells; 3 h) [nmol/10^6 cells] | Intracellular Concentration (HT29 cells; 6 h) [nmol/10^6 cells] | Intracellular Concentration (HT29 cells; 12 h) [nmol/10^6 cells] | Intracellular Concentration (HT29 cells; 24 h) [nmol/10^6 cells] | Intracellular Concentration (HT29 cells; 30 h) [nmol/10^6 cells] | Intracellular/extracellular ratio (HT29 cells; 0 h) | Intracellular/extracellular ratio (HT29 cells; 0.5 h) | Intracellular/extracellular ratio (HT29 cells; 1 h) | Intracellular/extracellular ratio (HT29 cells; 3 h) | Intracellular/extracellular ratio (HT29 cells; 6 h) | Intracellular/extracellular ratio (HT29 cells; 12 h) | Intracellular/extracellular ratio (HT29 cells; 24 h) | Intracellular Concentration (MDA−MB−231 cells; 0 h) [nmol/10^6 cells] | Intracellular Concentration (MDA−MB−231 cells; 0.5 h) [nmol/10^6 cells] | Intracellular Concentration (MDA−MB−231 cells; 1 h) [nmol/10^6 cells] | Intracellular Concentration (MDA−MB−231 cells; 3 h) [nmol/10^6 cells] | further results |
| --- | --- | --- | --- | --- | --- | --- | --- | --- | --- | --- | --- | --- | --- | --- | --- | --- | --- | --- | --- | --- | --- |
| Cc1c(C)c2cccnc2c2ncccc12.N[C@H]1CCCC[C@@H]1N.O=[N+]([O-])[O-].O=[N+]([O-])[O-].[Pt+2] [Pt^II56MESS, [Pt(5,6-dimethyl-1,10-phenanthroline)(1S,2S-diaminocyclohexane)](NO3)2] | 980 ± 1210 | 0.45 | 0.87 | 1.38 | 2.23 | 5.05 | 17.67 | 23.28 | 24.85 | 70.93 | 136.74 | 216.82 | 350.73 | 793.80 | 2776.28 | 3657.59 | 0.68 | 0.58 | 0.78 | 1.24 | intracellular/extracellular ratio relative to the maximum ratio of cisplatin (HT29 cells; HT29, 30 h): 34.8 fold; Intracellular/extracellular ratio (HT29 cells; 30 h, listed as 56MESS): ~3904; Intracellular/extracellular ratio (HT29 cells; 30 h, listed as PtII56MESS): 3903.51; drug's concentration per cell (HT29 cells; per HT29 cell, cell volume 1.7 pL, starting concentration 3 µM): ~11,711 µM; Intracellular Concentration (MDA−MB−231 cells; 6 h): 1.88 nmol/10^6 cells; Intracellular Concentration (MDA−MB−231 cells; 12 h): 4.80 nmol/10^6 cells; Intracellular Concentration (MDA−MB−231 cells; 24 h): 5.38 nmol/10^6 cells; Intracellular Concentration (MDA−MB−231 cells; 30 h): 11.24 nmol/10^6 cells; intracellular/extracellular ratio relative to the maximum ratio of cisplatin (MDA−MB−231 cells; MDA−MB−231, 30 h): 8.7 fold; Intracellular/extracellular ratio (MDA−MB−231 cells; 0 h): 107.16; Intracellular/extracellular ratio (MDA−MB−231 cells; 0.5 h): 92.36; Intracellular/extracellular ratio (MDA−MB−231 cells; 1 h): 122.42; Intracellular/extracellular ratio (MDA−MB−231 cells; 3 h): 195.59; Intracellular/extracellular ratio (MDA−MB−231 cells; 6 h): 296.93; Intracellular/extracellular ratio (MDA−MB−231 cells; 12 h): 754.52; Intracellular/extracellular ratio (MDA−MB−231 cells; 24 h): 845.27; Intracellular/extracellular ratio (MDA−MB−231 cells; 30 h): 1765.95 ± 526.75; Intracellular/extracellular ratio (MDA−MB−231 cells; 30 h, listed as 56MESS): around 1766; Intracellular/extracellular ratio (MDA−MB−231 cells; 30 h, listed as PtII56MESS): 1765.95; drug's concentration per cell (MDA−MB−231 cells; per MDA−MB−231 cell, cell volume 1.7 pL, starting concentration 3 µM): about 5298 µM |
| Cc1cc2cccnc2c2ncccc12.N[C@H]1CCCC[C@@H]1N.O=[N+]([O-])[O-].O=[N+]([O-])[O-].[OH][Pt+2][OH] [Pt^IV5MESS(OH)2, [Pt(5-methyl-1,10-phenanthroline)(1S,2S-diaminocyclohexane)(dihydroxy)](NO3)2] | 3820 ± 1420 | 0.15 | 0.17 | 0.28 | 0.33 | 0.66 | 5.05 | 7.37 | 7.85 | 25.03 | 26.29 | 44.59 | 52.25 | 104.08 | 793.61 | 1158.37 | 0.16 | 0.22 | 0.17 | 0.25 | Intracellular/extracellular ratio (HT29 cells; 30 h): 1234.08; Intracellular Concentration (MDA−MB−231 cells; 6 h): 0.29 nmol/10^6 cells; Intracellular Concentration (MDA−MB−231 cells; 12 h): 1.19 nmol/10^6 cells; Intracellular Concentration (MDA−MB−231 cells; 24 h): 1.31 nmol/10^6 cells; Intracellular Concentration (MDA−MB−231 cells; 30 h): 2.37 nmol/10^6 cells; Intracellular/extracellular ratio (MDA−MB−231 cells; 0 h): 26.14; Intracellular/extracellular ratio (MDA−MB−231 cells; 0.5 h): 35.23; Intracellular/extracellular ratio (MDA−MB−231 cells; 1 h): 27.69; Intracellular/extracellular ratio (MDA−MB−231 cells; 3 h): 40.45; Intracellular/extracellular ratio (MDA−MB−231 cells; 6 h): 46.47; Intracellular/extracellular ratio (MDA−MB−231 cells; 12 h): 186.97; Intracellular/extracellular ratio (MDA−MB−231 cells; 24 h): 205.97; Intracellular/extracellular ratio (MDA−MB−231 cells; 30 h): 371.97 |
